Here are results for three molecules from US20090105343A1, “Cancer Therapy And Medicaments Therefor” (The University of Birmingham, priority 2004, published 2009).

Entries after “also recorded” stand apart in the source; their conditions may differ.

Common to all, as to format: cell-based
One assay deals with RT-4. Put plainly: Proliferation assay (ATP bioluminescence), RT-4 bladder cancer cells. The settings on record: Homo sapiens; RT-4 cells, 96 h; read-out: Estimated dose required to inhibit bladder cancer cell proliferation by 50% (ED50). As to the method: (§1) The action of individual agents alone and in combination was examined using a bioluminescent technique to measure changes in cellular ATP (ViaLight HS, LumiTech, Nottingham, U.K.) with previously optimised conditions according to the manufacturer's instructions (Rashid, S. F. et al. Supra). Briefly, cells were plated in 96 well white-walled tissue culture-treated plates (Fisher Scientific Ltd. Loughborough, U.K.) (cancer cell lines at 2×10^3 cells/well; PrEC at 3.5×10^3 cells/well). […] After the incubation period, 100 μl of nucleotide releasing reagent was added to each well and cells were left for 30 minutes at room temperature. Liberated ATP was quantitated by adding 20 μl of ATP monitoring reagent (containing luciferin and luciferase) and measuring luminescence with a microplate luminometer (Berthold Detection Systems, Fisher Scientific Ltd.). ATP levels were recorded in relative luciferase units and growth inhibition was expressed as a percentage of control.

For the next assay, the system named is EJ-28. Put plainly: Proliferation assay (ATP bioluminescence), EJ-28 bladder cancer cells. The note with it: for Sensitivity of EJ-28 proliferation to ligand treatment: EJ-28 cells, ligand alone. As to the method: as §1
The subject of assay [1] is GADD45α. Put plainly: GADD45α gene induction (Q-RT-PCR). The note with it: 0.1 μM, 8 hr. As to the method: (§2) Cells were seeded at a density of 2×10^4/cm^2 and allowed to grow for 36 h to ensure that cells were in mid-exponential phase upon treatment. Total RNA was extracted using the GenElute RNA extraction system (Sigma) according to manufacturer's instructions. Primary cultures were serially passaged and grown to 80% confluency in standard serum-free medium. Cells were fed one day prior to isolation of total RNA using the Qiagen RNeasy Midi kit (Qiagen, Palo Alto, Calif., USA).
(§3) For real time reverse transcription-polymerase chain reaction (RT-PCR), cDNA was prepared from 1 μg of total RNA by reverse transcription with Mu-MLV (Promega Southampton, UK) at 42° C. for 60 min in the presence of 100 mM Tris-HCl, pH 9.0, 500 mM KCl and 2 mM MgCl2, 100 μM random hexamers (Pharmacia, Pisacataway, N.J.), 2 mM dNTP and 20 U RNAsin (Promega) in a 20 μl reaction volume.
(§4) Expression of specific mRNAs was quantitated using the ABI PRISM 7700 Sequence Detection System. […]
(§5) Data were expressed as Ct values (the cycle number at which logarithmic PCR plots cross a calculated threshold line) and used to determine δCt values (δCt=Ct of the target gene minus Ct of the housekeeping gene). […]

The next assay concerns DU-145 cells. The assay is described as follows: Cell cycle analysis (propidium iodide flow cytometry). The note with it: DU-145, 1 μM, after 24 hr (ctrl 41%). As to the method: The effect of nuclear receptor ligands in combination with the HDAC inhibitors on the cell cycle was measured by staining DNA with propidium iodide (PI). Briefly, T25 flasks were seeded with 2.5×10^5 sub-confluent, exponentially proliferating cells, exposed to 100 nM 1α,25(OH)2D3 alone or combined with either 300 μM NaB or 15 nM TSA at times 0 (and re-dosed after 48 hours in 72 and 96 hr assays). After a total of 24, 48, 72 and 96 hours, cultures were harvested by trypsinising, counted and 1×10^6 cells were stained with PI buffer (10 μg/ml PI, 1% (w/v) tri-sodium citrate, 0.1% (v/v) Triton X-100, 100 μM sodium chloride (Sigma)). Cell cycle distribution was determined using a Becton-Dickinson Flow Cytometer and CellFIT Cell-Cycle Analysis software.
(In general: A flow cytometer gives signals particle by particle.)

Another assay relates to p21^(waf1/cip1). Put plainly: Upregulation of CDKI p21(waf1/cip1). The note with it: 2 μM. As to the method:
as §2, §3, §4, §5

Assay [2] has as its system GADD45α. Put plainly: GADD45α induction in PC-3 cells after SMRT knock down. The settings on record: SMRT knocked down by RNAi. The source says: SIRNA fragments (22mers) were generated in vitro using a Dicer generation system according to the manufacturer's protocol (Gene Therapy Systems, San Diego, Calif.). Briefly, a 650 bp region from the human SMRT gene sequence corresponding to 112 to 762 was amplified using the following primers containing T7 promoter sequences;
FS: 5′-[…]-3′ and RV: 5′-[…]-3′. This was subsequently cloned into the pGEM T easy vector (Promega), using the multiple cloning sites to allow for sequencing, large scale harvest. Digestion with ECoR1 released a pure concentrated template for in vitro […] with primers containing T7 recognition sequences to generate double stranded mRNA. This was subsequently cleaved with recombinant human Dicer enzyme to generate a pool of 22mers which cover the region targeted in the 5′prime region of the SMRT gene. Five hundred ng of purified double stranded RNA 22mers were transfected into each well (2×10^5 cells/well in 24-well plates) for 12 hrs. Cells were then left for a further 72 hr to allow gene silencing and subsequently treated with 1α,25(OH)2D3 (100 nM) for 6 hr and total RNA was harvested and Q-RT-PCR for SMRT and target genes was undertaken as above.

The test system of assay [3] is prostate cancer cell lines. Put plainly: Proliferation assay (ATP bioluminescence), prostate cancer cell lines, single agents and combinations. As to the method: as §1
The interactions of two compounds were assessed by measuring the mean of either the nuclear receptor ligand or the HDAC inhibitor acting alone or in combination. The mean observed combined effect was compared to the individual effects of the agents added together, using the Student's t-test. […] All other analyses were also compared using the Student's t-test.

In the case of `C[C@H](CCC(=O)O)[C@H]1CC[C@H]2[C@@H]3[C@H](O)C[C@@H]4C[C@H](O)CC[C@]4(C)[C@H]3CC[C@]12C` [CDA, chenodeoxycholic acid], in the assay with RT-4, the EC50 was 11 µM. Besides, the “ligand action in EJ-28 cells on co-treatment with SAHA” value with EJ-28 (EJ-28, co-treatment with SAHA) was “restored the actions”. Moreover, the “Sensitivity of EJ-28 proliferation to ligand treatment” value with EJ-28 is on record as “insensitive”.

As to `O=C(CCCCCCC(=O)Nc1ccccc1)NO` [SAHA, Suberoylanilide hydroxamic acid], the “GADD45α induction, individual agent alone” value in the assay on GADD45α [1] is listed as “not significant”. For the same molecule, the “cells in G1” value in the assay with DU-145 cells worked out at 64%. In the assay on p21^(waf1/cip1), the “upregulation of the CDKI p21(waf1/cip1)” value is “potent and immediate upregulation”.

As for `C=C1/C(=C\C=C2/CCC[C@]3(C)[C@@H]([C@H](C)CCCC(C)(C)O)CC[C@@H]23)C[C@@H](O)C[C@@H]1O` [Vit D, 1α,25-dihydroxyvitamin D3], the “Sensitivity of EJ-28 proliferation to ligand treatment” value with EJ-28 is reported as “insensitive”. Besides, the “GADD45α induction by ligand alone after SMRT knock down” value in the assay with GADD45α [2] is on record as “very strongly enhanced”. For the same molecule, the “interaction of the ligand with SAHA on proliferation” value in assay [3] (co-treatment with SAHA, listed as 1α,25(OH)2D3) is reported as “did not appear to extend; also recorded: does not”. Also, in assay [3] (co-treatment with TSA), the “augmentation of the ligand's action by TSA” value was “augments”.
